Results published in US8367659B2, “Oxazinyl isoflavonoid compounds, medicaments and use” (Marshall Edwards, Inc., priority 2007, dated 2013).
Where two headings read alike, the source gives them in different places. Marks after values point to notes of the source that are not given here.

Assays:
[1] = system: PGE2 synthesis in RA-stimulated U937 cells; test: PGE2 synthesis in RA-stimulated U937 cells; assay type: cell-based, human
Procedure: U937 cells were thawed and resuspended in RPM1 and 10% FCS at 2×10^5 cells per ml. The cells were incubated in 5% CO2 at 37° C. and expanded in growing culture to at least 6.4×10^7 total cells. The cells were then resuspended in fresh medium and cultured with […] (RA) at 2×10^5 cells per ml for a further 3 days (72 h). RA treated cells were washed 2× in serum-free RPM and resuspended in serum-free medium at 5×10^6 cells per ml. The cells were aliquotted into Teflon tubes at 1 ml per tube. Working stock solutions of each test compound were prepared at 0.1 mM, 1 mM and 10 mM as described above. For each test compound at each working dilution, 10 μl was added to 1 ml cells to achieve a final concentration of 0 (DMSO alone), 1, 10, and 100 μM for each test compound. Cells were incubated in triplicate with each concentration of test compound for 15 min at 37° C. After 15 min pre-incubation, each 1 ml tube of cells received 5 μl of a […] solution of the calcium ionophore A23187 (to achieve 0.5 μM A23187). Incubation at 37° C. was continued for a further 30 min. After incubation, supernatants were collected by centrifugation at 2000 rpm for 10 min and stored at −20° C. until required for assay.

[2] = system: human umbilical vein smooth muscle cells (HUVSMC); test: Proliferation of human umbilical vein smooth muscle cells (MTT); assay type: cell-based
In short: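 HUVSMC (1.6×10^3 cells/well) serum-starved 20 h, pretreated 1 h with analogue at 10 μM final, then stimulated with 10% FCS. After ~5 days, when FCS controls were just confluent, MTT absorbance was read; value = test/control*100−100.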

MDA-MB-468 = test: Anti-cancer activity, MDA-MB-468 breast cancer cells (MTT); assay type: cell-based; details: Homo sapiens, MDA-MB-468, 120 h, 5 days
MM200 = test: Anti-cancer activity, MM200 melanoma cells (MTT); assay type: cell-based; details: 120 h; 5 days, MTT
[3] = system: neonatal foreskin fibroblasts (NFF); test: Toxicity to normal cells, neonatal foreskin fibroblasts; assay type: cell-based; details: Fibroblast
Procedure: IC50 values were determined for each cell line. Cells were seeded in 96-well plates at an appropriate cell density as determined from growth kinetics analysis and cultured for 5 days in the absence and presence of the test compounds. Cell proliferation was assessed after the addition of 20 μl of 3-4,5 dimethylthiazol-2,5-diphenyl tetrazolium bromide (MTT, 2.5 mg/ml in PBS, Sigma) for 3-4 hrs at 37° C. according to manufacturer's instructions. IC50 values were calculated from semi-log plots of % of control proliferation on the y-axis against log dose on the x-axis.
The neonatal foreskin fibroblasts (NFF) were a gift from Dr. Peter Parsons (Queensland Institute of Medical Research). Rabbit kidney (RK-13) cells were obtained from Miller Whalley (Macquarie University). Both cell lines were cultured in RPMI supplemented with 10% FCS(CSL, Australia), penicillin (100 U/ml), streptomycin ([…]), L-glutamine (2 mM) and sodium bicarbonate (1.2 g/L), and cultured at 37° C. in a humidified atmosphere of 5% CO2. IC50 values were determined as described above.

[4] = system: TXB2 synthesis in RAW 264.7 murine macrophages; test: LPS-induced TXB2 synthesis in RAW 264.7 murine macrophages; assay type: cell-based, mouse; details: 10 μM; relative to vehicle alone; FIG. 4
Procedure: The mouse macrophage cell line RAW 264.7 was cultured in DMEM supplemented with foetal calf serum (FCS), […] glutamine and 50 U/ml penicillin/streptomycin. Cells were treated with either test compound (in 0.025% DMSO) or vehicle alone, and added one hour before 50 ng/ml LPS. After incubation for 24 h, culture media was collected for PGE2 or TXB2 measurement by ELISA (Cayman Chemical), and TNFα measurement using an ELISA (Becton Dickinson). Test compounds were examined a concentration of 10 μM. […] Consequently, to assess the effect of test compounds on various analytes, cell viability was taken into consideration with the use of the formula: Actual effect of test compound=measured effect−(effect on cell viability×measured effect)

[5] = molecular target: T1, GAL4-PPARγ fusion protein (Homo sapiens, UniProt P37231); test: PPARγ activity in transfected HEK293 cells (beta-lactamase reporter); assay type: cell-based; details: FIG. 13: 1 μM
T1 construct: host or cells: HEK293 (human embryonic kidney), stably transfected
T1 sequence (P37231 238-503 limits assumed): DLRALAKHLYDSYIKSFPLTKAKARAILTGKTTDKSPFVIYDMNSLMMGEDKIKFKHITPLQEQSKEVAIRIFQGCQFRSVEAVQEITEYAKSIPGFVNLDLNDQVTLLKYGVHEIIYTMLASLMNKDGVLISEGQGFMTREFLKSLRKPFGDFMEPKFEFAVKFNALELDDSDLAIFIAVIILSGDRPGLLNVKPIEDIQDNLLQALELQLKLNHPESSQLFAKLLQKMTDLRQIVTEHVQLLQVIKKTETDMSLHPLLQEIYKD
T1 sequence (P04386 1-147 partner limits assumed): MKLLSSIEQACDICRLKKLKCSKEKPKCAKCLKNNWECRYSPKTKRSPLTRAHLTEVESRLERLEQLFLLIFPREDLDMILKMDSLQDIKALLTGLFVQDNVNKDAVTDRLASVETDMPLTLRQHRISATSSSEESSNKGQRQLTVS
In short: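 HEK293 cells stably expressing GAL4-DBD/PPARγ-LBD fusion with beta-lactamase reporter, treated with compound at 1, 5 and 10 μM for 16-18 h. Beta-lactamase read via FRET substrate (2 h, room temperature), ex 409 nm, em 460/530 nm; background-subtracted emission ratio.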

[6] = normal, non-transformed cells, read-out: IC50 μM, NFF Fibroblast
[7] = read-out: toxicity to normal fibroblast cell line / NFFs (IC50)

IC50 (MDA-MB-468) [µM] | IC50 (MM200) [µM] | PPARγ activation, increase in beta-lactamase activity over media only control [5] | SMILES | PGE2 ([1]; test compound 1 μM, A23187) [pg] | PGE2 ([1]; test compound 10 μM, A23187) [pg] | PGE2 ([1]; test compound 100 μM, A23187) [pg] | IC50 ([2]; Homo sapiens, average over three different assays, 4-5 days, read-out: average IC50, inhibition of proliferation of HUVSMC) [µM] | IC50 [3, 6] [µM] | IC50 [3, 7] [µM] | effect on PGE2 synthesis [1] | PGE2 (pg) ([1]; test compound 100 μM, A23187) | mean change of LPS-induced TXB2 synthesis [4] | effect on proliferation of HUVSMCs induced by FCS ([2]; 10 μM, 10% FCS, 5 days, FIG. 8)
5.25 ± 2.1 | 6.1 ± 1.6 |  | Oc1ccc(C2=Cc3cc4c(cc3OC2)OCN(Cc2ccccc2)C4)cc1 [Compound 1, 4-(3-Benzyl-2,3,4,8-tetrahydrochromeno[6,7-e][1,3]oxazin-7-yl)phenol] | 1.431 ± 0.154 | 0.702 ± 0.237 | 0.555 ± 0.064 | 15 | 15.1 | ~15 |  |  |  | 
4.87 ± 2.6 | 4.76 ± 1.3 | PPARγ agonist activity | CC(c1ccccc1)N1COc2cc3c(cc2C1)C=C(c1ccc(O)cc1)CO3 (stereo not shown) [Compound 2, 4-(3-(1-Phenylethyl)-2,3,4,8-tetrahydrochromeno[6,7-e][1,3]oxazin-7-yl)phenol] | 1.303 ± 0.044 | 0.948 ± 0.111 |  |  | 33.2 | > 30 | inhibit PGE2 synthesis | 0.158 ± 0.027^a pg | greatest inhibition | significantly inhibited the proliferation
